Data published in ChEMBL document CHEMBL3045957, “Synthesis and antimicrobial activity of some new 3[5-(4-substituted) phenyl-1,3,4-oxadiazole-2yl]-2- styrylquinazoline-4(3H)-ones” (2008).
≈ marks a conversion by molar mass, not a printed value. Calls of active or inactive are those of the source. No cut-off for these calls is given here.

Key:
Type in all cases: functional
Escherichia coli = assay: Antibacterial activity against Escherichia coli MTCC 40 by liquid dilution technique
Fusarium oxysporum = assay: Antifungal activity against Fusarium oxysporum by liquid dilution technique
Bacillus subtilis = assay: Antibacterial activity against Bacillus subtilis MTCC 619 by liquid dilution technique
Staphylococcus aureus = assay: Antibacterial activity against Staphylococcus aureus MTCC 96 by liquid dilution technique
Pseudomonas aeruginosa = assay: Antibacterial activity against Pseudomonas aeruginosa MTCC 424 by liquid dilution technique
Aspergillus niger = assay: Antifungal activity against Aspergillus niger MTCC 1344 by liquid dilution technique

## Cc1nc2ccccc2c(=O)n1-c1nnc(-c2ccc(N(C)C)cc2)o1
Escherichia coli
  MIC: 84 µg/mL (≈ 242 µM)
Fusarium oxysporum
  MIC: 179 µg/mL (≈ 515 µM)
Bacillus subtilis
  MIC: 88 µg/mL (≈ 253 µM)
Staphylococcus aureus
  MIC: 88 µg/mL (≈ 253 µM)
Pseudomonas aeruginosa
  MIC: 95 µg/mL (≈ 273 µM)
Aspergillus niger
  MIC: 170 µg/mL (≈ 489 µM)

## COc1ccc(-c2nnc(-n3c(C)nc4ccccc4c3=O)o2)cc1
Escherichia coli
  MIC: 80 µg/mL (≈ 239 µM)
Fusarium oxysporum
  MIC: 175 µg/mL (≈ 523 µM)
Bacillus subtilis
  MIC: 85 µg/mL (≈ 254 µM)
Staphylococcus aureus
  MIC: 90 µg/mL (≈ 269 µM)
Pseudomonas aeruginosa
  MIC: 100 µg/mL (≈ 299 µM)
Aspergillus niger
  MIC: 165 µg/mL (≈ 494 µM)

## COc1ccc(-c2nnc(-n3c(/C=C/c4ccc(Cl)cc4)nc4ccccc4c3=O)o2)cc1
Escherichia coli
  MIC: inactive
Fusarium oxysporum
  MIC: inactive
Bacillus subtilis
  MIC: inactive
Staphylococcus aureus
  MIC: inactive
Pseudomonas aeruginosa
  MIC: inactive
Aspergillus niger
  MIC: inactive

## Cc1ccc(-c2nnc(-n3c(/C=C/c4ccccc4)nc4ccccc4c3=O)o2)cc1
Escherichia coli
  MIC: 81 µg/mL (≈ 199 µM)
Fusarium oxysporum
  MIC: 156 µg/mL (≈ 384 µM)
Bacillus subtilis
  MIC: 83 µg/mL (≈ 204 µM)
Staphylococcus aureus
  MIC: 85 µg/mL (≈ 209 µM)
Pseudomonas aeruginosa
  MIC: 92 µg/mL (≈ 226 µM)
Aspergillus niger
  MIC: 145 µg/mL (≈ 357 µM)

## O=c1c2ccccc2nc(/C=C/c2ccc(Cl)cc2)n1-c1nnc(-c2ccccc2)o1
Escherichia coli
  MIC: inactive
Fusarium oxysporum
  MIC: inactive
Bacillus subtilis
  MIC: inactive
Staphylococcus aureus
  MIC: inactive
Pseudomonas aeruginosa
  MIC: inactive
Aspergillus niger
  MIC: inactive

## CN(C)c1ccc(-c2nnc(-n3c(/C=C/c4ccc(Cl)cc4)nc4ccccc4c3=O)o2)cc1
Escherichia coli
  MIC: inactive
Fusarium oxysporum
  MIC: inactive
Bacillus subtilis
  MIC: inactive
Staphylococcus aureus
  MIC: inactive
Pseudomonas aeruginosa
  MIC: inactive
Aspergillus niger
  MIC: inactive

## Cc1nc2ccccc2c(=O)n1-c1nnc(-c2ccccc2)o1
Escherichia coli
  MIC: 120 µg/mL (≈ 394 µM)
Fusarium oxysporum
  MIC: 192 µg/mL (≈ 631 µM)
Bacillus subtilis
  MIC: 127 µg/mL (≈ 417 µM)
Staphylococcus aureus
  MIC: 130 µg/mL (≈ 427 µM)
Pseudomonas aeruginosa
  MIC: 135 µg/mL (≈ 444 µM)
Aspergillus niger
  MIC: 185 µg/mL (≈ 608 µM)

## Cc1ccc(-c2nnc(-n3c(/C=C/c4ccc(Cl)cc4)nc4ccccc4c3=O)o2)cc1
Escherichia coli
  MIC: inactive
Fusarium oxysporum
  MIC: inactive
Bacillus subtilis
  MIC: inactive
Staphylococcus aureus
  MIC: inactive
Pseudomonas aeruginosa
  MIC: inactive
Aspergillus niger
  MIC: inactive

## COc1ccc(-c2nnc(-n3c(/C=C/c4ccc(C)cc4)nc4ccccc4c3=O)o2)cc1
Escherichia coli
  MIC: inactive
Fusarium oxysporum
  MIC: inactive
Bacillus subtilis
  MIC: inactive
Staphylococcus aureus
  MIC: inactive
Pseudomonas aeruginosa
  MIC: inactive
Aspergillus niger
  MIC: inactive

## Cc1ccc(/C=C/c2nc3ccccc3c(=O)n2-c2nnc(-c3ccc(C)cc3)o2)cc1
Escherichia coli
  MIC: inactive
Fusarium oxysporum
  MIC: inactive
Bacillus subtilis
  MIC: inactive
Staphylococcus aureus
  MIC: inactive
Pseudomonas aeruginosa
  MIC: inactive
Aspergillus niger
  MIC: inactive

## COc1ccc(-c2nnc(-n3c(/C=C/c4ccccc4)nc4ccccc4c3=O)o2)cc1
Escherichia coli
  MIC: inactive
Fusarium oxysporum
  MIC: inactive
Bacillus subtilis
  MIC: inactive
Staphylococcus aureus
  MIC: inactive
Pseudomonas aeruginosa
  MIC: inactive
Aspergillus niger
  MIC: inactive

## O=c1c2ccccc2nc(/C=C/c2ccccc2)n1-c1nnc(-c2ccc(Cl)cc2)o1
Escherichia coli
  MIC: 70 µg/mL (≈ 164 µM)
Fusarium oxysporum
  MIC: 141 µg/mL (≈ 330 µM)
Bacillus subtilis
  MIC: 75 µg/mL (≈ 176 µM)
Staphylococcus aureus
  MIC: 79 µg/mL (≈ 185 µM)
Pseudomonas aeruginosa
  MIC: 86 µg/mL (≈ 201 µM)
Aspergillus niger
  MIC: 130 µg/mL (≈ 305 µM)

## Cc1ccc(/C=C/c2nc3ccccc3c(=O)n2-c2nnc(-c3ccccc3)o2)cc1
Escherichia coli
  MIC: inactive
Fusarium oxysporum
  MIC: inactive
Bacillus subtilis
  MIC: inactive
Staphylococcus aureus
  MIC: inactive
Pseudomonas aeruginosa
  MIC: inactive
Aspergillus niger
  MIC: inactive

## CN(C)c1ccc(-c2nnc(-n3c(/C=C/c4ccccc4)nc4ccccc4c3=O)o2)cc1
Escherichia coli
  MIC: 79 µg/mL (≈ 181 µM)
Fusarium oxysporum
  MIC: 166 µg/mL (≈ 381 µM)
Bacillus subtilis
  MIC: 83 µg/mL (≈ 191 µM)
Staphylococcus aureus
  MIC: 88 µg/mL (≈ 202 µM)
Pseudomonas aeruginosa
  MIC: 94 µg/mL (≈ 216 µM)
Aspergillus niger
  MIC: 155 µg/mL (≈ 356 µM)

## O=c1c2ccccc2nc(/C=C/c2ccccc2)n1-c1nnc(-c2ccccc2)o1
Escherichia coli
  MIC: 76 µg/mL (≈ 194 µM)
Fusarium oxysporum
  MIC: 152 µg/mL (≈ 387 µM)
Bacillus subtilis
  MIC: 80 µg/mL (≈ 204 µM)
Staphylococcus aureus
  MIC: 82 µg/mL (≈ 209 µM)
Pseudomonas aeruginosa
  MIC: 90 µg/mL (≈ 229 µM)
Aspergillus niger
  MIC: 143 µg/mL (≈ 364 µM)

## Clc1ccccc1C(c1ccccc1)(c1ccccc1)n1ccnc1 [CLOTRIMAZOLE]
Fusarium oxysporum
  MIC: 8 µg/mL (≈ 23.2 µM)
Aspergillus niger
  MIC: 6 µg/mL (≈ 17.4 µM)

## CCn1cc(C(=O)O)c(=O)c2cc(F)c(N3CCNCC3)cc21 [NORFLOXACIN]
Escherichia coli
  MIC: 4 µg/mL (≈ 12.5 µM)
Bacillus subtilis
  MIC: 5 µg/mL (≈ 15.7 µM)
Staphylococcus aureus
  MIC: 6 µg/mL (≈ 18.8 µM)
Pseudomonas aeruginosa
  MIC: 8 µg/mL (≈ 25.1 µM)

## Cc1ccc(-c2nnc(-n3c(C)nc4ccccc4c3=O)o2)cc1
Escherichia coli
  MIC: 115 µg/mL (≈ 361 µM)
Fusarium oxysporum
  MIC: 180 µg/mL (≈ 565 µM)
Bacillus subtilis
  MIC: 122 µg/mL (≈ 383 µM)
Staphylococcus aureus
  MIC: 127 µg/mL (≈ 399 µM)
Pseudomonas aeruginosa
  MIC: 138 µg/mL (≈ 434 µM)
Aspergillus niger
  MIC: 165 µg/mL (≈ 518 µM)

## Cc1ccc(/C=C/c2nc3ccccc3c(=O)n2-c2nnc(-c3ccc(N(C)C)cc3)o2)cc1
Escherichia coli
  MIC: inactive
Fusarium oxysporum
  MIC: inactive
Bacillus subtilis
  MIC: inactive
Staphylococcus aureus
  MIC: inactive
Pseudomonas aeruginosa
  MIC: inactive
Aspergillus niger
  MIC: inactive

## O=c1c2ccccc2nc(/C=C/c2ccc(Cl)cc2)n1-c1nnc(-c2ccc(Cl)cc2)o1
Escherichia coli
  MIC: inactive
Fusarium oxysporum
  MIC: inactive
Bacillus subtilis
  MIC: inactive
Staphylococcus aureus
  MIC: inactive
Pseudomonas aeruginosa
  MIC: inactive
Aspergillus niger
  MIC: inactive

## Cc1ccc(/C=C/c2nc3ccccc3c(=O)n2-c2nnc(-c3ccc(Cl)cc3)o2)cc1
Escherichia coli
  MIC: inactive
Fusarium oxysporum
  MIC: inactive
Bacillus subtilis
  MIC: inactive
Staphylococcus aureus
  MIC: inactive
Pseudomonas aeruginosa
  MIC: inactive
Aspergillus niger
  MIC: inactive

## Cc1nc2ccccc2c(=O)n1-c1nnc(-c2ccc(Cl)cc2)o1
Escherichia coli
  MIC: 82 µg/mL (≈ 242 µM)
Fusarium oxysporum
  MIC: 184 µg/mL (≈ 543 µM)
Bacillus subtilis
  MIC: 84 µg/mL (≈ 248 µM)
Staphylococcus aureus
  MIC: 89 µg/mL (≈ 263 µM)
Pseudomonas aeruginosa
  MIC: 98 µg/mL (≈ 289 µM)
Aspergillus niger
  MIC: 172 µg/mL (≈ 508 µM)
